The source of these data is patent US11571423B2, “Small molecule modulators of human sting” (Curadev Pharma Limited, priority 2017, dated 2023).

Counter-ions that a name gives are not always drawn.

The target in assay [1] is cynomolgus monkey STING protein (Macaca fascicularis, UniProt A0A2R3XZA6). Kind of assay: Luciferase reporter assay, cynomolgus monkey STING overexpressed in HEK293T cells. The assay is classed as cell-based. The settings on record: cynomolgus monkey STING overexpressed in HEK293T cells; read-out: Cynomolgus monkey STING activity (EC50 range). An outline of the steps:
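HEK293T cells overexpressing cynomolgus STING with a secreted luciferase reporter were stimulated with compound for 20 hr. Supernatant reporter activity was then measured by Quanti-Luc luminescence, and EC50 values were derived.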
In general terms: A reporter such as luciferase makes a cellular process visible.

For a further assay, the target named is hSTING(H232) (Homo sapiens, UniProt Q86WV6). Kind of assay: Luciferase reporter assay in HEK293T-hSTING-Luciferase cells, H232/REF polymorph. The settings on record: H232/REF polymorph of human STING, EC50 range class. In kind it is cell-based. The source says:
(§1) Stable Cell Line Generation • a) Stable STING expressing cells—Stable HEK293T STING-expressing cell lines were generated using plasmids purchased from Invivogen, CA, USA, that contain STING cDNA cloned into the pUNO-1 vector under hEF1-HTLV promoter and containing the Blasticidin selection cassette. The plasmids hSTING(R232), hSTING(H232), hSTING(HAQ) were directly procured from Invivogen while hSTING (AQ) and hSTING (Q) were derived from hSTING(HAQ) and hSTING (R232) plasmids respectively by using a PCR based site directed mutagenesis method. These vectors were individually transfected into HEK293T cells using Lipofectamine (Invitrogen) and transfected cells were selected under Blasticidin selection. These transfected cells were further subjected to clonal selection using the limiting dilution method to obtain clonally pure populations of HEK cells transfected with each of the above mentioned human STING variants. Only those clones were selected in which ligand independent activation of STING was minimal. • b) Stable Luciferase reporter gene expressing cells—Stable HEK293T Luciferase reporter gene expressing cell lines were generated using pCDNA4 plasmids under an IRF-inducible promoter. This promoter is comprised of five tandem interferon-stimulated response elements (ISRE) fused to an ISG54 minimal promoter. This vector was transfected into HEK293T cells using Lipofectamine (Invitrogen) and transfected cells were selected under Zeocin selection. These transfected cells were further subjected to clonal selection using the limiting dilution method to obtain clonally pure populations of HEK cells transfected the Luciferase reporter construct. Only those clones were selected in which ligand independent induction of luciferase was minimal.
(§2) 5×10^5 clonally selected HEK293T-hSTING-Luciferase cells were seeded in 384-well plates in growth medium and stimulated with novel compounds. After 20 hr of stimulation supernatant were removed and secretary reporter gene activity were measured using the Quanti-Luc detection system (Invivogen) on a Spectramax i3X luminometer.
(§3) In the tables below, EC50 value ranges for exemplary compounds are given.
(§4) Single nucleotide polymorphisms of human STING have been described, which can affect the functional potency of compounds that modulate the activity of the STING protein (see Yi et. al., PLoS One, October 2013, 8(10), e77846). The 5 major polymorphisms of human STING are shown in FIG. 1, with their prevalence in human populations indicated.
(§5) The tables below show the potency of selected compounds of the invention against the most common polymorphisms.

The subject of a further assay is IRF pathway. Kind of assay: Reporter gene expression assay in THP1-Dual cells, IRF axis (secreted Lucia luciferase). The assay is classed as cell-based, human. The settings on record: Homo sapiens, 20 hr stimulation, EC50 range class, read-out: THP-IRF activity. Here is the method:
(§6) THP1-Dual™ cells (Invivogen) were derived from the human THP-1 monocyte cell line by stable integration of two inducible reporter constructs. As a result, THP1-Dual™ cells allow the simultaneous study of the NF-κB pathway, by monitoring the activity of secreted SEAP, and the IRF pathway, by assessing the activity of a secreted luciferase (Lucia). 5×10^5 THP1-Dual™ cells were seeded in 384-well plates in growth medium and stimulated with novel compounds. After 20 hr of stimulation supernatants were removed and reporter proteins were readily measured in the cell culture supernatant using QUANTI-Blue™ (Invivogen), a SEAP detection reagent, and QUANTI-Luc™ (Invivogen), a luciferase detection reagent on a Spectramax i3X luminometer.
(§7) EC50 value ranges for exemplary compounds tested in the above assay are given.

The test system of a further assay is NF-κB pathway. Briefly: Reporter gene expression assay in THP1-Dual cells, NFkB axis (secreted SEAP). The assay is classed as cell-based, human. The settings on record: Homo sapiens, 20 hr stimulation, EC50 range class, read-out: THP-NFκB activity. As for the experimental part: as §6, §7
A further assay deals with hSTING(HAQ) (Homo sapiens, UniProt Q86WV6, G230A/H232R/R293Q/R71H). Kind of assay: Luciferase reporter assay in HEK293T-hSTING-Luciferase cells, HAQ polymorph. In kind it is cell-based. The note with it: HAQ polymorph of human STING, EC50 range class.
Excerpt: as §1, §2, §3, §4, §5

The target of another assay is hSTING(R232) (Homo sapiens, UniProt Q86WV6, H232R). Kind of assay: Luciferase reporter assay in HEK293T-hSTING-Luciferase cells, R232 (wild type) human STING. The note with it: 20 hr stimulation, read-out: R232 human activity (EC50 range). The assay is classed as cell-based. Summed up:
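Clonal HEK293T cells stably expressing STING from a pUNO-1 plasmid plus an ISRE/ISG54-driven secreted luciferase reporter; 5×10^5 cells stimulated with compound for 20 hr. Supernatant luciferase read by luminescence, giving fold-induction over baseline and EC50.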

Sequence of hSTING(R232) (Q86WV6 whole entry H232R): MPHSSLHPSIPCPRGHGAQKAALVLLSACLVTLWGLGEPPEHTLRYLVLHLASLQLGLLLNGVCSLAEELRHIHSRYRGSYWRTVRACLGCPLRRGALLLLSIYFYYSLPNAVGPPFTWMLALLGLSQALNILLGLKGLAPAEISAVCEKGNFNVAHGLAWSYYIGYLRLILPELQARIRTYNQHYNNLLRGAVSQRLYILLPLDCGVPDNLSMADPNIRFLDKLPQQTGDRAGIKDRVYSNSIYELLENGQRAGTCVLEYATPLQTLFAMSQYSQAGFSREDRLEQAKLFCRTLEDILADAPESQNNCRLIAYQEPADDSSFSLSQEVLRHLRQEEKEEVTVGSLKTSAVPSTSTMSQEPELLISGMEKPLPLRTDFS
Sequence of hSTING(HAQ) (Q86WV6 whole entry R71H/G230A/H232R/R293Q): as the sequence (Q86WV6 whole entry H232R) above, with R71H, G230A, R293Q counted along it
Sequence of cynomolgus monkey STING protein (A0A2R3XZA6 entry or part of it): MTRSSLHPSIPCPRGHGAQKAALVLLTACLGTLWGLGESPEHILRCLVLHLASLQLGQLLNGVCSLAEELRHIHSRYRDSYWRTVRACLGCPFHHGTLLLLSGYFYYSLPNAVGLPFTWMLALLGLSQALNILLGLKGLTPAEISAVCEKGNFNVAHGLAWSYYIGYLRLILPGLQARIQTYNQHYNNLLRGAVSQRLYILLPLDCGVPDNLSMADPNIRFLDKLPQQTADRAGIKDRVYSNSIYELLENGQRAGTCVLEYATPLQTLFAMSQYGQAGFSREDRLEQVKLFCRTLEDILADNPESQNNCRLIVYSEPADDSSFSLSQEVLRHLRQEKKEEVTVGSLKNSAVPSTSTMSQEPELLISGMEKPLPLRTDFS
Sequence of hSTING(H232) (Q86WV6 whole entry): as the sequence (Q86WV6 whole entry H232R) above, with R232H counted along it

Turning to `C[C@H]1c2ccc(C(=O)NCc3c(F)cc(F)cc3F)cc2N(Cc2c(F)cccc2Cl)C(=O)N1C` (single isomer, unassigned) [Example 76], the EC50 (in assay [1]; at hSTING(H232); in the assay with IRF pathway; in the assay on NF-κB pathway; on hSTING(HAQ); on hSTING(R232)) was less than 1000 nM in each case.
As to `CC1c2ccc(C(=O)NCc3c(F)cc(F)cc3F)cc2N(Cc2c(O)cccc2F)C(=O)N1C` (centres unmarked) [Example 171, 1-(2-fluoro-6-hydroxybenzyl)-3,4-dimethyl-2-oxo-N-(2,4,6-trifluorobenzyl)-1,2,3,4-tetrahydroquinazoline-7-carboxamide], the EC50 (in assay [1]; at hSTING(H232); in the assay with IRF pathway; in the assay with NF-κB pathway; at hSTING(HAQ)) was less than 1000 nM in each case.
Turning to `CC1c2ccc(C(=O)NCc3c(F)cc(F)cc3F)cc2N(Cc2c(F)cccc2F)C(=O)N1C` (centres unmarked) [Example 206, 1-(2,6-difluorobenzyl)-3,4-dimethyl-2-oxo-N-(2,4,6-trifluorobenzyl)-1,2,3,4-tetrahydroquinazoline-7-carboxamide], the EC50 (in assay [1]; on hSTING(H232); in the assay with IRF pathway; in the assay with NF-κB pathway; on hSTING(HAQ)) was less than 1000 nM in each case.
For the compound `C[C@H]1c2ccc(C(=O)NCc3c(F)cc(F)cc3F)cc2N(Cc2ncccc2F)C(=O)N1C` [Example 227, (S)-1-((3-fluoropyridin-2-yl)methyl)-3,4-dimethyl-2-oxo-N-(2,4,6-trifluorobenzyl)-1,2,3,4-tetrahydroquinazoline-7-carboxamide], the EC50 on hSTING(H232) was 1000 to 10000 nM; in the assay on IRF pathway it was 1000 to 10000 nM; in the assay with NF-κB pathway, 1000 to 10000 nM; on hSTING(HAQ) it was 1000 to 10000 nM; on hSTING(R232), less than 1000 nM.
Turning to `CC1c2ccc(C(=O)NCc3ccc(O)cc3)cc2N(Cc2c(F)cccc2Cl)C(=O)N1C` (centres unmarked) [Example 235, 1-(2-chloro-6-fluorobenzyl)-N-(4-hydroxybenzyl)-3,4-dimethyl-2-oxo-1,2,3,4-tetrahydroquinazoline-7-carboxamide], the EC50 on hSTING(H232) was 1000 to 10000 nM; with IRF pathway, greater than 10000 nM; in the assay on NF-κB pathway, greater than 10000 nM; on hSTING(HAQ), 1000 to 10000 nM; at hSTING(R232), 1000 to 10000 nM.
Consider `Cc1cc(CN2C(=O)N(C)C(C)c3ccc(C(=O)NCc4c(F)cc(F)cc4F)cc32)c(F)cn1` (centres unmarked) [Example 237, 1-((5-fluoro-2-methylpyridin-4-yl)methyl)-3,4-dimethyl-2-oxo-N-(2,4,6-trifluorobenzyl)-1,2,3,4-tetrahydroquinazoline-7-carboxamide], for which the EC50 was less than 1000 nM on hSTING(H232); 1000 to 10000 nM in the assay with IRF pathway; 1000 to 10000 nM in the assay on NF-κB pathway; less than 1000 nM at hSTING(HAQ); less than 1000 nM at hSTING(R232).
In the case of `Cc1ccc(F)c(CN2C(=O)N(C)C(C)c3ccc(C(=O)NCc4c(F)cc(F)cc4F)cc32)n1` (centres unmarked) [Example 238, 1-((3-fluoro-6-methylpyridin-2-yl)methyl)-3,4-dimethyl-2-oxo-N-(2,4,6-trifluorobenzyl)-1,2,3,4-tetrahydroquinazoline-7-carboxamide], the EC50 on hSTING(H232) was 1000 to 10000 nM; in the assay on IRF pathway it was 1000 to 10000 nM; with NF-κB pathway it was 1000 to 10000 nM; on hSTING(HAQ), 1000 to 10000 nM; on hSTING(R232), less than 1000 nM.
Turning to `C[C@H]1c2ccc(C(=O)NCc3c(F)cc(F)cc3F)cc2N(Cc2ccc(N=[N+]=[N-])cc2)C(=O)N1C` [Example 239, (S)-1-(4-azidobenzyl)-3,4-dimethyl-2-oxo-N-(2,4,6-trifluorobenzyl)-1,2,3,4-tetrahydroquinazoline-7-carboxamide], the EC50 at hSTING(H232) is 1000 to 10000 nM; with IRF pathway it was 1000 to 10000 nM; in the assay with NF-κB pathway it was 1000 to 10000 nM; on hSTING(HAQ), 1000 to 10000 nM; on hSTING(R232), less than 1000 nM.
For the compound `C[C@H]1c2ccc(C(=O)NCc3c(F)cc(F)cc3F)cc2N(Cc2ccc(N)cc2)C(=O)N1C` [Example 243, (S)-1-(4-aminobenzyl)-3,4-dimethyl-2-oxo-N-(2,4,6-trifluorobenzyl)-1,2,3,4-tetrahydroquinazoline-7-carboxamide], the EC50 was 1000 to 10000 nM at hSTING(H232); greater than 10000 nM in the assay on IRF pathway; greater than 10000 nM in the assay with NF-κB pathway; 1000 to 10000 nM at hSTING(HAQ); 1000 to 10000 nM on hSTING(R232).
In the case of `COc1cc(F)c(CNC(=O)c2ccc3c(c2)N(Cc2c(F)cccc2Cl)C(=O)N(C)[C@H]3C)c(F)c1` [Example 246, (S)-1-(2-chloro-6-fluorobenzyl)-N-(2,6-difluoro-4-methoxybenzyl)-3,4-dimethyl-2-oxo-1,2,3,4-tetrahydroquinazoline-7-carboxamide], the EC50 on hSTING(H232), in the assay with IRF pathway, in the assay with NF-κB pathway, at hSTING(HAQ) and on hSTING(R232) was less than 1000 nM in each case.
Take `C[C@H]1c2ccc(C(=O)NCc3c(F)cc(O)cc3F)cc2N(Cc2c(F)cccc2Cl)C(=O)N1C` [Example 252, (S)-1-(2-chloro-6-fluorobenzyl)-N-(2,6-difluoro-4-hydroxybenzyl)-3,4-dimethyl-2-oxo-1,2,3,4-tetrahydroquinazoline-7-carboxamide]: the EC50 at hSTING(H232) was less than 1000 nM; with IRF pathway, 1000 to 10000 nM; in the assay with NF-κB pathway it was 1000 to 10000 nM; at hSTING(HAQ), less than 1000 nM; on hSTING(R232), less than 1000 nM.
As for `C[C@H]1c2ccc(C(=O)NCc3c(F)cc(F)cc3F)cc2N(Cc2c(F)cccc2NCCO)C(=O)N1C` [Example 264, (S)-1-(2-fluoro-6-((2-hydroxyethyl)amino)benzyl)-3,4-dimethyl-2-oxo-N-(2,4,6-trifluorobenzyl)-1,2,3,4-tetrahydroquinazoline-7-carboxamide hydrochloride], the EC50 on hSTING(H232) was less than 1000 nM; in the assay with IRF pathway it was 1000 to 10000 nM; in the assay on NF-κB pathway it was 1000 to 10000 nM; at hSTING(HAQ) it was 1000 to 10000 nM; at hSTING(R232), less than 1000 nM.
With `C[C@H]1c2ccc(C(=O)NCc3c(F)cc(F)cc3F)cc2N(Cc2c(N)ccc(F)c2F)C(=O)N1C` [Example 285, (S)-1-(6-amino-2,3-difluorobenzyl)-3,4-dimethyl-2-oxo-N-(2,4,6-trifluorobenzyl)-1,2,3,4-tetrahydroquinazoline-7-carboxamide], the EC50 at hSTING(H232), in the assay on IRF pathway, in the assay with NF-κB pathway, on hSTING(HAQ) and on hSTING(R232) was less than 1000 nM each time.
Turning to `COc1cc(F)c(CN2C(=O)N(C)[C@@H](C)c3ccc(C(=O)NCc4c(F)cc(F)cc4F)cc32)c(Cl)c1` [Example 293, (S)-1-(2-chloro-6-fluoro-4-methoxybenzyl)-3,4-dimethyl-2-oxo-N-(2,4,6-trifluorobenzyl)-1,2,3,4-tetrahydroquinazoline-7-carboxamide], the EC50 at hSTING(H232), with IRF pathway, in the assay on NF-κB pathway, at hSTING(HAQ) and on hSTING(R232) was less than 1000 nM in each case.
